In brackets after ≈: the same amount, converted by molar mass. Several values for one entry are separate records, joined by “and”; a condition that tells them apart may be missing. Equal values may be shown once. Entries after “also recorded” stand apart in the source; their conditions may differ. Read-outs that look alike come from different tables or passages of the source.
Legend:
[1] = tested on: Mtb H37Rv (ATCC 27294); test: Resazurin microtiter assay (REMA), MIC90 against bacteria in active state; assay type: cell-based; details: Mycobacterium tuberculosis
[2] = Cytotoxicity against MRC-5 cell line; details: human, cytotoxicity IC50, MRC-5 cell line
[3] = tested on: dormant M. tuberculosis H37Rv; test: microbe, parasite or virus in culture; assay type: cell-based; details: Mycobacterium tuberculosis, dormant (nonreplicating) M. tuberculosis H37Rv
[4] = tested on: Staphylococcus aureus (ATCC 29213); test: Spectrum of activity, OD570 after 16 h; assay type: cell-based; details: ATCC29213, read-out: MIC90 (antimicrobial activity)
Method: (§1) Determination of Minimal Inhibitory Concentration (MIC90) Against Bacteria in Dormant […]
(§2) The selective compounds (SI ≥ 10) were tested against the mycobacterium in a dormant state. The cultures were thawed, diluted in Middlebrook 7H12 broth, and sonicated for 5 s. The cultures were diluted to obtain the concentration between […] and 2 × 10^6 CFU/mL. TwoHfold serial dilutions of the compounds were prepared in a volume of […] in white 96Hwell microtiter plates, followed by the addition of […] of the cell suspension. The microplate cultures were placed under anaerobic conditions (oxygen concentration less than 0.16%) by using an Anoxomat model WS8080 (MART Microbiology) followed by two cycles of evacuation and filling with a mixture of 10% hydrogen (H2), 5% carbon dioxide (CO2), and the balance with nitrogen (N2). An anaerobic indicator strip was placed inside the chamber to visually confirm the removal of oxygen. The plates were incubated at 37°C for 10 days and then transferred to an ambient gaseous condition (5% CO2H enriched air) incubator for a 28 h “recovery.” On day 11 (after the 28Hh aerobic recovery), we determined the luminescence and calculated the MIC90.4
(§3) To establish the spectrum activity, we determined the MIC90 against E. coli (ATCC 25922) and S. aureus (ATCC 29213) by measuring the optical density at 570 nm after 16 h of incubation in Mueller–Hinton II broth (Becton Dickinson, Sparks; Maryland, United States) and against C. albicans (ATCC 10231) at OD570 after 48 h in Cellgro RPMI 1640 medium (Mediatech Inc., Manassas, Virginia, United States). The MIC was defined as the lowest concentration resulting in 90% reduction in absorption relative to that of untreated control cultures.
(§4) Determination of Minimal Inhibitory Concentration Against Isogenic Monoresistant Strains

[5] = tested on: Escherichia coli (ATCC 25922); test: Spectrum of activity, OD570 after 16 h; assay type: cell-based; details: ATCC25922, read-out: MIC90 (antimicrobial activity)
Method: as §1, §2, §3, §4

[6] = tested on: Candida albicans (ATCC 10231); test: Spectrum of activity, OD570 after 48 h; assay type: cell-based; details: ATCC10231, read-out: MIC90 (antimicrobial activity)
Method: as §1, §2, §3, §4

[7] = tested on: MRC-5 human lung fibroblast cell line; parameters: method as in PMID 27508879; details: cited from earlier work
[8] = tested on: Mtb H37Rv (ATCC 27294); parameters: method as in PMID 27508879; details: cited from earlier work
[9] = tested on: cytochrome P450 isoforms (all isoforms tested); test: in vitro; details: human, microsomes
[10] = tested on: BALB/c mice; test: Tolerability test in BALB/c mice and toxicological analysis; details: 10 days
[11] = tested on: M. tuberculosis Erdman; test: Infection and treatment: efficacy against acute TB in mice; assay type: in vivo, mouse; details: 200 mg/kg in microemulsion, once daily oral gavage, 5 days/week, day 10 to 29 postinfection, BALB/c mice
[12] = tested on: mouse peripheral blood reticulocytes; details: 50, 100, 200 and 500 mg/kg by gavage, Swiss mice
[13] = tested on: M. tuberculosis H37Rv (ATCC 27294); test: Time-kill curves (bactericidal kinetics); assay type: cell-based, Mycobacterium tuberculosis
[14] = Caco-2 permeability assay; assay type: in vitro ADME; details: human, basolateral to apical
Method: (§5) In vitro hydrolysis was performed by HPLC method using a Shimadzu HPLC model CBMH20A (Shimadzu®) and an Agilent® Eclipse XDB C18 column (250 × 4.6 mm, 5 µm). The isocratic flow was 60:40 (water:acetonitrile, v/v) and the flow rate was 1.0 mL/min. The volume injected was 20.0 µL and the wavelength in the detector (UVHVIS) was 210 nm. […]
(§6) of 100 µg/mL. This solution was then diluted to 20 µg/mL using two different PBS buffers to provide the following pH values: 5.5 and 7.4. During the assay, all samples were maintained at constant agitation using a shaker (400 rpm) at 37°C. The aliquots were taken from the solution at the following times: 0, 1, 2, 4, 8, 10, 20, and 24 h. All analyses were conducted in triplicate, and the results were expressed as the averages of the concentrations in percentages (±standard error of the […]
(§7) Plasma Protein Binding Assay […]
(§8) of the mixture in a RED (Rapid Equilibrium Dialysis, Pierce) device against PBS and incubated on an orbital shaker for 4 h at 37°C. […] The samples were centrifuged and the supernatant was recovered and analyzed by Liquid chromatography–mass spectrometry (LCHMS)/MS. […]
(§9) the twoHday interval. […] Similarly, for basolateral to apical (B→A) permeability, the compound was added to the B side and the amount of permeation was determined on the A side. […]

[15] = tested on: Caco-2 cells; test: Caco-2 permeability assay; assay type: in vitro ADME
Method: as §5, §6, §7, §8, §9

[16] = tested on: M. tuberculosis H37Rv (ATCC 27294) in J774A.1 macrophages; test: Intramacrophage activity; assay type: cell-based, Mycobacterium tuberculosis
[17] = tested on: M. tuberculosis H37Rv; test: Microarray gene expression analysis; assay type: cell-based, Mycobacterium tuberculosis; details: 4 h of exposure at 2× MIC, versus vehicle
[18] = tested on: BALB/c mice; details: H&E, group treated with compound 8
[19] = tested on: human plasma; test: Plasma protein binding assay (rapid equilibrium dialysis); assay type: in vitro ADME; details: 5 µM, 4 h at 37°C
Method: as §5, §6, §7
as §8, with “37°C. Aliquots from plasmaH and PBSHbased samples were collected, an equal volume of PBS was added to the plasma sample, and an equal volume of plasma was added to the PBS sample.” for “37°C.”

[20] = actively replicating M. tuberculosis H37Rv, REMA, read-out: MIC90
[21] = 200 mg/kg daily oral, vs control group

NC(=O)c1c(COc2cccc(/C=N/NC(=O)c3ccncc3)c2)no[n+]1[O-] [Compound 4b, (E)-3-Carbamoyl-4-((3-((2-isonicotinoylhydrazono)methyl)phenoxy)methyl)-1,2,5-oxadiazole 2-Oxide] gave an MIC90 [1, 20] of 0.15 µg/mL, an IC50 [2] of 490 µg/mL (≈ 1280 µM) and an MIC90 [3] of 1.6 µg/mL (≈ 4.18 µM).
With O=C(N/N=C/c1ccc2no[n+]([O-])c2c1)c1ccc([N+](=O)[O-])cc1 [Compound 11, (E)-6-((2-(4-Nitrobenzoyl)hydrazono)methyl)benzo[c][1,2,5]oxadiazole 1-Oxide] the MIC ([1]; actively replicating M. tuberculosis H37Rv, REMA) was > 62 µM, the MIC90 [1, 20] was 1.73 µg/mL and the MIC90 [4] was > 200 µM. The MIC90 [5] was > 200 µM and the MIC90 [6] was > 200 µM.
With O=C(N/N=C/c1ccc2no[n+]([O-])c2c1)c1ccc(O)cc1 [Compound 14, (E)-6-((2-(4-Hydroxybenzoyl)hydrazono)methyl)benzo[c][1,2,5]oxadiazole 1-Oxide] the MIC90 [1, 20] was > 25 µg/mL, the MIC90 [4] was > 200 µM and the MIC90 [5] was > 200 µM. For the same molecule, the MIC90 [6] was > 200 µM.
For Nc1ccc(C(=O)N/N=C/c2ccc3no[n+]([O-])c3c2)cc1 [Compound 17, (E)-6-((2-(4-Aminobenzoyl)hydrazono)methyl)benzo[c][1,2,5]oxadiazole 1-Oxide], the MIC90 [1, 20] was 3.16 µg/mL, the IC50 [2] was 250 µg/mL (≈ 841 µM) and the MIC90 [4] was > 200 µM. The MIC90 [5] was > 200 µM and the MIC90 [6] was > 200 µM.
NC(=O)c1c(COc2ccc(/C=N/NC(=O)c3ccncc3)cc2)no[n+]1[O-] [Compound 4c, (E)-3-Carbamoyl-4-((4-((2-isonicotinoylhydrazono)methyl)phenoxy)methyl)-1,2,5-oxadiazole 2-Oxide] gave an MIC90 [1, 20] of 0.16 µg/mL, an IC50 [2] of 443 µg/mL (≈ 1160 µM) and an MIC90 [3] of 0.78 µg/mL (≈ 2.04 µM).
For O=C(N/N=C/c1ccc(Oc2no[n+]([O-])c2S(=O)(=O)c2ccccc2)cc1)c1ccncc1 [(E)-4-(4-((2-isonicotinoylhydrazono)methyl)phenoxy)-3-(phenylsulfonyl)-1,2,5-oxadiazole 2-oxide], the IC50 [7] is given as 43 µM and the MIC90 [8] is given as 1 µM and 1.0 µM.
With NC(=O)c1c(COc2ccccc2/C=N/NC(=O)c2ccncc2)no[n+]1[O-] [Compound 4a, (E)-3-Carbamoyl-4-((2-((2-isonicotinoylhydrazono)methyl)phenoxy)methyl)-1,2,5-oxadiazole 2-Oxide] the MIC90 [1, 20] was 0.16 µg/mL, the IC50 [2] was 327 µg/mL (≈ 854 µM) and the MIC90 [3] was 2.95 µg/mL (≈ 7.72 µM).
With O=C(N/N=C/c1ccc2no[n+]([O-])c2c1)c1ccncc1 [Compound 8, (E)-6-((2-Isonicotinoylhydrazono)methyl)benzo[c][1,2,5]oxadiazole 1-Oxide] the IC50 [9] was > 15 µM, the MIC90 [1, 20] was 1.1 µM and 0.31 µg/mL and the MIC90 ([1]; supplementary CSV, read-out: Mtb MIC90) was 1.1 µM. The IC50 [2] was 147 µg/mL (≈ 519 µM), the “behavior parameters (hippocratic screening)” value ([10]; 200 mg/kg daily oral gavage) was “No significant variation in the behavior” and the “alanine aminotransferase in plasma” value [10, 21] was “no significant differences”. For the same molecule, the “alkaline phosphatase in plasma” value [10, 21] was “no significant differences”, the “aspartate aminotransferase in plasma” value [10, 21] was “no significant differences” and the “changes in the weight of organs (heart, lungs, spleen, kidneys, liver)” value [10, 21] was “No statistically significant difference”. The MIC90 [4] was > 200 µM, the MIC90 [5] was > 200 µM and the “Mtb colonies (CFU) in homogenized lungs” value [11] was “reduction of Mtb to undetectable levels; also recorded: no colonies were observed; also recorded: No detectable Mtb”. The “genotoxicity (micronucleated reticulocytes)” value [12] was “not genotoxic at any concentration tested”, the “reduction of CFU (sterilization of cultures)” value ([13]; after 48 h of exposure, 41.24 μM) was ~6.7 log10 and the bactericidal profile ([13]; time-kill kinetic experiments up to 15 days) was “bactericidal with an early bactericidal effect”. For the same molecule, the Papp B→A [14] was 3.9 ×10⁻⁶ cm/s, the Caco-2 permeability profile [15] was “good permeability profile” and the intracellular inhibition [16] was “around 90%”. The “effect on gene expression” value [17] was “significant upregulation in the majority of ribosomal genes as well as all genes encoding subunits of ATP synthase”, the histology of kidneys [18] was “morphologically normal” and the “human plasma protein binding (% free)” value [19] was 46.5 % free. For the same molecule, the MIC90 [6] was > 200 µM.

— paper PMC5677254, “Design, Synthesis, and Characterization of N-Oxide-Containing Heterocycles with in Vivo Sterilizing Antitubercular Activity” (Journal of Medicinal Chemistry, 2017)
